# From US20210255195A1, “HIGH PRECISION SPECTRAL FRET ASSAYS” (Regents of the University of Minnesota, priority 2017, published 2021)
# pEC50, pKi: −log10 of the molar value.
# Assays:
# [1] = system: endoplasmic reticulum calcium (D1ER sensor); experiment: D1ER cameleon calcium FRET sensor in HEK293 cells (ER calcium depletion), spectral mode; assay type: cell-based, human; conditions: for T50 (rate of calcium depletion): saturating drug concentrations, Hill fit of time course
# Method: Investigation of a CFP and YFP FRET pair was evaluated with the well-known cameleon calcium sensor, in which the calmodulin-binding (M13) domain of myosin light chain kinase (MLCK) and calcium-binding domain of calmodulin are fused together, and located between two fluorescence proteins (eCFP/mCitrine). These calcium sensors have allowed cellular [Ca^2+] to be monitored more directly and reliably than using calcium-sensitive dyes. The endoplasmic reticulum-targeted cameleon sensor (D1ER) was selected because it is known to be sensitive to the SERCA inhibitors thapsigargin, CPA, and BHQ. Instead of detecting direct ligand binding, as in the 2CS studies reported above, the D1ER sensor can be used to monitor changes in ER calcium level. Upon SERCA inhibition, calcium is no longer pumped into the ER, leading to calcium depletion through various mechanisms including IP3-gated receptors and ryanodine receptors. D1ER senses these changes as calcium binding leads to a conformational rearrangement of the biosensors, increasing FRET between CFP and YFP. Therefore, calcium depletion due to SERCA inhibition is detected as a decrease in FRET.
# A HEK293 stable clone with constitutive expression of the D1ER cameleon calcium sensor was generated using G418 antibiotic selection. […] Cells were harvested and dispensed into 384-well plates containing the same concentrations of thapsigargin, CPA, and BHQ, as previously evaluated with 2CS (FIG. 9). D1ER FRET was monitored only in spectral mode, because the CFP donor cannot be excited effectively by the 473 nm laser used in lifetime mode. ER calcium was monitored by repeatedly scanning the 384 well plate at three-minute intervals over a 120-minute period. […]
# After resuspension and dilution in PBS, the cells were constantly and gently stirred using a magnetic stir bar at room temperature, keeping the cells in suspension and evenly distributed to avoid clumping. […] Concentration-response curves (CRC) of the FRET hits were assessed at multiple time points by repeatedly scanning the 384-well plates. […] The D1ER calcium sensor monitored changes in endoplasmic reticulum [Ca^2+] […] The methods and protocols for the D1ER cells were identical to those for 2CS, with the exception that they were evaluated only in spectral mode, and the 384-well plates containing compound CRCs were scanned every three minutes for two-hours.
# SERCA malfunction can result in decreased ATPase activity and/or calcium pumping efficiency. ER calcium content was monitored over time using the endoplasmic-localized cameleon calcium FRET sensor (D1ER). […] Briefly, D1ER FRET changes were monitored over time by repeatedly (every 3 minutes) scanning a 384-well plate containing varying concentrations of the 2CS FRET hits. D1ER cells were assessed immediately after compound incubation. […]
# [2] = biological target: two-color SERCA (2CS) biosensor (SERCA2a) (UniProt P16615); experiment: 2CS FRET biosensor in living HEK293 cells, spectral mode (spectral unmixing plate reader); assay type: cell-based, human; conditions: for 2CS FRET hit identification: NCC screen, reproducible and dose-dependent FRET decrease
# Method: HEK293 cells were maintained in phenol-red-free DMEM from Gibco (Waltham, Mass.) supplemented with 2 mM GlutaMAX (Gibco), 10% fetal bovine serum (FBS) from Atlanta Biologicals (Laweranceville, Ga.), and 1 IU/mL penicillin/streptomycin (Gibco) and grown at 37° C. with 5% CO2. Stable clones expressing the FRET biosensors and corresponding donor- and acceptor-labeled control cell lines were established as described previously [3]. Briefly, cells were transfected with the recombinant DNA following established protocols lipofectaimine 3000 from Invitrogen (Carlsbad, Calif.). 48 hours post transfection the cells were placed under G418 (500 μg/mL) from Sigma (St. Louis, Mo.), antibiotic selection, and plated to allow for the growth of single colonies. Clones were isolated 2-3 weeks after transfection and antibiotic selection. […] The cell lines were expanded in T225 flasks from Corning (Corning, N.Y.), harvested by treatment with Tryple (Invitrogen), washed three times in phosphate buffer solution (PBS) with no magnesium or calcium Thermo Fischer (Waltham, Mass.)) and centrifuged at 300 g, filtered using 70 μm cell strainers (Corning), and diluted to 10^6 cells/mL using an automated countess cell counter from Invitrogen. In studies with cyan and yellow fluorescent protein biosensors, transient transfections were performed. In these studies, cells were harvested and prepared as described above, 48 hours after transfection. Cell viability was assessed using trypan blue. […]
# The observed fluorescence emission spectrum F(λ) was fitted by least-squares minimization to a linear combination of component spectra
# where D is donor, A is acceptor, C is cell autofluorescence, and W is water Raman, and a, b, c, d are the weighting (scalar) coefficients determined from the fit. The fitted spectrum for each well was determined using least squares minimization with Matlab (Mathworks) to solve for the scalar coefficients.
# For an intramolecular FRET sensor with a 1:1 ratio of donor D and acceptor A molecules, FRET efficiency (FRET) was determined from (Eq. 10).
# [3] = system: cytosolic calcium; conditions: literature; cited from earlier work
# [4] = biological target: two-color SERCA (2CS) biosensor (SERCA2a) (UniProt P16615); experiment: 2CS FRET biosensor in living HEK293 cells, fluorescence lifetime mode; assay type: cell-based, human
# Method: HEK293 cells were maintained in phenol-red-free DMEM from Gibco (Waltham, Mass.) supplemented with 2 mM GlutaMAX (Gibco), 10% fetal bovine serum (FBS) from Atlanta Biologicals (Laweranceville, Ga.), and 1 IU/mL penicillin/streptomycin (Gibco) and grown at 37° C. with 5% CO2. Stable clones expressing the FRET biosensors and corresponding donor- and acceptor-labeled control cell lines were established as described previously. Briefly, cells were transfected with the recombinant DNA following established protocols lipofectaimine 3000 from Invitrogen (Carlsbad, Calif.). 48 hours post transfection the cells were placed under G418 (500 μg/mL) from Sigma (St. Louis, Mo.), antibiotic selection, and plated to allow for the growth of single colonies. Clones were isolated 2-3 weeks after transfection and antibiotic selection. The stability of each clone was assessed by flow cytometry and confocal microscopy (data not shown). The cell lines were expanded in T225 flasks from Corning (Corning, N.Y.), harvested by treatment with Tryple (Invitrogen), washed three times in phosphate buffer solution (PBS) with no magnesium or calcium Thermo Fischer (Waltham, Mass.)) and centrifuged at 300 g, filtered using 70 μm cell strainers (Corning), and diluted to 10^6 cells/mL using an automated countess cell counter from Invitrogen. In studies with cyan and yellow fluorescent protein biosensors, transient transfections were performed. In these studies, cells were harvested and prepared as described above, 48 hours after transfection. Cell viability was assessed using trypan blue.
# Cells were dispensed using a Multidrop Combi liquid dispenser from Thermo Fischer (Pittsburgh, Pa.) at a density of 10^6/mL. Compounds were diluted in DMSO and dispensed either using a Mosquito liquid handeler from TTP Labtech (Melbourn, UK) or a Mantis liquid dispenser from Formulatrix (Bedford, Mass.). The known SERCA inhibitors thapsigargin (TG, Sigma), 1,4-dihydroxy-2,5-di-tert-butylbenzene (BHQ) from Tocris (Minneapolis, Minn.), and cyclopiazonic acid (CPA, Tocris) were diluted at 50× concentrations and subsequently serially diluted in 96-well mother plates prior to liquid dispensing. […]
# In its spectral unmixing plate reader (SUPR) mode, the instrument provides direct high-throughput detection of the complete fluorescence emission spectrum, (emission vs wavelength), with excitation provided by a 473 nm continuous wave laser. Spectra are recorded using a grating-based fiber optic input spectrograph equipped with linear-array CCD detector (Sony ILX511B). The recorded wavelength range in these experiments spanned the entire visible spectrum, but only the 400-700 nm range was used in the data analysis. In lifetime mode, the full nanosecond-resolved fluorescence emission waveform is acquired following excitation with a 473 nm pulsed microchip laser. […]
# Fluorescence decay waveforms for lifetime determination, were detected directly as previously described. […] A full fluorescence decay waveform was detected in response to each laser pulse over a 128 ns time window, using a photomultiplier module from Hamamatsu (Cat #H10720-210), and a proprietary transient digitizer from Fluorescence Innovations (Minneapolis, Minn.). A 488 nm long-pass filter from Semrock (Rochester, N.Y.) and 517/20 bandpass emission filter (lifetime mode), were used, ensuring that only emission from the GFP donor was detected. […]
# [5] = biological target: SERCA2a (Homo sapiens, UniProt P16615); conditions: binding to SERCA2a, literature; cited from earlier work
# SERCA2a, sequence (P16615 1-997 isoform P16615-2, species assumed): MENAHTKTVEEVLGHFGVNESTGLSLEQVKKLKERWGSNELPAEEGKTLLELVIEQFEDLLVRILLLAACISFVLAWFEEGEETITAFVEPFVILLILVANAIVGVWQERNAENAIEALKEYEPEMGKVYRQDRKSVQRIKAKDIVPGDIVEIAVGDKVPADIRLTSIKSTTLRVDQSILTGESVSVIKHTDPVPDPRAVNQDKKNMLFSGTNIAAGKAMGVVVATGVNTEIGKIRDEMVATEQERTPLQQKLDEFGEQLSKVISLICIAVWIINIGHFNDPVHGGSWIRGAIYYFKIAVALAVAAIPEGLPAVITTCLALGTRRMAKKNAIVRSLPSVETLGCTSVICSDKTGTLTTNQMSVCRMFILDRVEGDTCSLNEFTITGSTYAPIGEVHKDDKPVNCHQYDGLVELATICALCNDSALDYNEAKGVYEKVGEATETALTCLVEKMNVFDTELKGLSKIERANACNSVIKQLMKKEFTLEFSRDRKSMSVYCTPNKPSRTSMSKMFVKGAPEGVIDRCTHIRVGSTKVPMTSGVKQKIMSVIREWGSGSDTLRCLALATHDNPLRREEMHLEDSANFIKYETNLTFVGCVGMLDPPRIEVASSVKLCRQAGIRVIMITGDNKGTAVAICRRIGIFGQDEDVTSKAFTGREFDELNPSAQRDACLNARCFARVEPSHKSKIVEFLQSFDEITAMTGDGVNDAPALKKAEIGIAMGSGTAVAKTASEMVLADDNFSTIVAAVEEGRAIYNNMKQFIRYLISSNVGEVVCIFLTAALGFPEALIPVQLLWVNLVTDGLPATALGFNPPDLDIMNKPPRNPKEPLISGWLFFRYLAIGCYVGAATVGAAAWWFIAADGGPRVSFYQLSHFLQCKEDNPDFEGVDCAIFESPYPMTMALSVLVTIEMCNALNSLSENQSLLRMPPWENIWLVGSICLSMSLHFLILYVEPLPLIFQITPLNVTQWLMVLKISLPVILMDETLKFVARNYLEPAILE
# [6] = Water Raman spectrum of compound-only wells (compound aggregation); assay type: physicochemical; conditions: dose-dependent
# From the text: The high sensitivity of spectral mode is shown by the fluorescence signal of the water Raman spectrum.
compound,measurement,setting,value
"CC(C)(C)c1cc(O)c(C(C)(C)C)cc1O [BHQ, 1,4-dihydroxy-2,5-di-tert-butylbenzene]",T50 (rate of calcium depletion),[1],17.4 min
Clc1ccccc1C(c1ccccc1)(c1ccccc1)n1ccnc1 [clotrimazole],2CS FRET hit identification,[2],hit
Oc1cc(Cl)ccc1Oc1ccc(Cl)cc1Cl [triclosan],cytosolic calcium,[3],increase cytosolic calcium
c1ccc(-c2ccc(C(c3ccccc3)n3ccnc3)cc2)cc1 (stereo not shown) [bifonazole],2CS FRET hit identification,[2],hits
C/C=C(/C)C(=O)O[C@H]1C(C)=C2[C@H]([C@@H]1OC(=O)CCCCCCC)[C@@](C)(OC(C)=O)C[C@H](OC(=O)CCC)[C@@]1(O)[C@H]2OC(=O)[C@@]1(C)O [thapsigargin],reduction in FRET,"[2]; 50 nM thapsigargin, spectral mode, average of 32 wells",8%
same,reduction in FRET efficiency,"[4]; 50 nM thapsigargin, lifetime mode, versus donor-only control",6%
same,2CS structural equilibrium between open and closed states,[4]; global lifetime analysis,shifts this equilibrium substantially toward the open state
same,2CS structural equilibrium between open and closed states,"[4]; global lifetime analysis, listed as Thapsigargin",greatly increasing the population of the more open and disordered structural state
same,pEC50,"[4]; read-out: EC50 of closed state mole fraction, global lifetime analysis, two-state model",8.66
same,increase in the GFP lifetime,"[4]; saturating concentration, 50 nM",200 picosecond
same,pEC50,"[1]; Homo sapiens, HEK293, 2 h, ER calcium depletion at 120 min time point, read-out: equilibrium constant of sigmoidal D1ER FRET response",8.71
same,T50 (rate of calcium depletion),[1],9.5 min
same,pKi,[5],8.70
Clc1ccc(COC(Cn2ccnc2)c2ccc(Cl)cc2Cl)c(Cl)c1 (stereo not shown) [miconazole],2CS FRET hit identification,[2],hits
same,ER calcium depletion,[1]; over 120 minutes,largest amount of ER calcium depletion
same,"Raman scattering, compound aggregation",[6],decreases inelastic light scattering (Raman band)
